# In patent publication US20240050526A1, “CATH2 DERIVATIVES FOR STIMULATING INNATE IMMUNE MEMORY” (priority 2020, published 2024):
# Square brackets hold non-standard residues; d marks the D form. Ends that are not written are not given here.
# Columns and labels:
# [1] = system: Candida albicans ATCC10231; experiment: Candidacidal activity of DCATH-2 primed dTHP-1 cells; format: cell-based; conditions: 24 h DCATH-2 training; colonies after 48 h
# Method: dTHP-1 cells were seeded in 6 well plates and primed with DCATH-2 or medium as described. Candida albicans ATCC10231 was grown in yeast malt broth (Oxoid) at 30° C., diluted in DPBS to 1×10^4 CFU/ml and added to each well (MOI of 0.03). After 5 h incubation at 30° C., supernatants were transferred and kept. The remaining cells were supplemented with 0.5 ml of sterile water, mixed vigorously and combined with their corresponding well supernatants. Serial dilutions prepared in yeast malt broth were plated onto yeast malt agar. Colonies were counted after 48 h at 30° C.
# [2] = system: dTHP-1 cells; experiment: Innate immune training of dTHP-1 cells by cathelicidin peptides, cytokine ELISA after TLR agonist re-stimulation; format: cell-based, human
# Method: THP-1 cells were cultured in Iscove Modified Dulbecco Media (IMDM, Gibco) containing Glutamax-I, sodium pyruvate, 10% fetal calf serum at 37° C. and 5% CO2. For differentiation to macrophage-like cells, THP-1 cells were grown in IMDM/FCS medium containing 8 of 100 nM PMA and seeded in 96 wells (5×10^4 cells/well), 24 wells (3×10^5 cells/well) or 6 wells plates (1×10^6 cells/well) during 48 h. Subsequently, dTHP-1 were washed with pre-warmed IMDM/FCS, left overnight to rest and primed during 1 to 24 h with 2-10 μM peptides of fresh IMDM/FCS medium, washed 3 times in medium. After 3 days rest cells were stimulated with various stimuli: S. minnesota LPS (10 ng/ml), E. coli LPS (10 or 50 ng/ml), Pam3CSK4 (1 μg/ml) or Pam2CSK4 (1 μg/ml). After 24 h supernatants were collected and stored at −20° C. For inhibition, dTHP-1 cells were pre-incubated for 1 h before priming and during priming with rapamycin (10 nM), AICAR (50 nM), metformin (0.3 mM), wortmannin (1 μM), ascorbate (50 μM), SB203580 (10 μM), PD98059 (10 μM), SP600125 (10 μM), EGCG (40 μM), anacardic acid (50 μM), curcumin (10 μM), garcinol (10 μM), Bay-11-7085 (10 μM), MTA (1 mM), MM-102 (25 μM), suramin (50 μM), KN-62 (3 μM), nystatin (10 μg/ml), and chlorpromazine (10 μM).
# TNFα, IL-6, CXCL10 and CCL5 production were measured using ELISA (R&D systems) following instructions of the manufacturer.
# Extrapolating from the trained immunity experiments with human monocytes, we examined if mature cathelicidin peptides could induce trained immunity in TH P-1 cells, a human monocyte cell line. TH P-1 cells were differentiated with 100 nM or 8 nM phorbol 12-myristate 13-acetate (PMA) during 48 h washed 3 times and, after overnight rest, primed with 2-10 μM of chicken cathelicidin 2 (CATH-2), its full D-analog DCATH-2 or human cathelicidin LL-37 for 24 h. Subsequently, dTHP-1 cells were washed 3 times and re-stimulated after a 3-day rest period with TLR agonists (24 h) (FIG. 1a). […] Priming with 5 μM of its full-D-amino acid analog DCATH-2 amplified 2- to 3-fold the TNFα and IL-6 production in response to LPS stimulation. A minor response was found for priming with 10 μM LL-37, which amplified IL-6 production 1.4-fold in 100 nM differentiated cells.
substance,measurement,setting,value
"rfgrflrkirrfrpkvtitiqgsarf-NH2 ([dR][dF]G[dR][dF][dL][dR][dK][dI][dR][dR][dF][dR][dP][dK][dV][dT][dI][dT][dI][dQ]G[dS][dA][dR][dF]-NH2; N-terminus assumed; SMILES CC[C@@H](C)[C@@H](NC(=O)[C@@H](CCCCN)NC(=O)[C@@H](CCCNC(=N)N)NC(=O)[C@@H](CC(C)C)NC(=O)[C@@H](Cc1ccccc1)NC(=O)[C@@H](CCCNC(=N)N)NC(=O)CNC(=O)[C@@H](Cc1ccccc1)NC(=O)[C@H](N)CCCNC(=N)N)C(=O)N[C@H](CCCNC(=N)N)C(=O)N[C@H](CCCNC(=N)N)C(=O)N[C@H](Cc1ccccc1)C(=O)N[C@H](CCCNC(=N)N)C(=O)N1CCC[C@@H]1C(=O)N[C@H](CCCCN)C(=O)N[C@@H](C(=O)N[C@@H](C(=O)N[C@@H](C(=O)N[C@@H](C(=O)N[C@@H](C(=O)N[C@H](CCC(N)=O)C(=O)NCC(=O)N[C@H](CO)C(=O)N[C@H](C)C(=O)N[C@H](CCCNC(=N)N)C(=O)N[C@H](Cc1ccccc1)C(N)=O)[C@H](C)CC)[C@H](C)O)[C@H](C)CC)[C@H](C)O)C(C)C) [DCATH-2, full D-amino acid analog of CATH-2]",inhibition of outgrowth of Candida albicans vs non-primed dTHP-1 cells,[1],68±10%
same,TNFα and IL-6 production after re-stimulation with TLR2 and TLR4 ligands,"[2]; 5 μM, re-stimulation with E. coli O111:B4 LPS, Pam3CSK4 or Pam2CSK4",amplified
same,production of CCL5 and CXCL10,"[2]; 5 μM, re-stimulation with TLR2 and TLR4 agonists",not altered
same,basal production levels of TNFα and IL-6,"[2]; 24 h priming (2.5-5 μM DCATH-2), 3 days rest, no re-stimulation",not altered
same,priming time reaching highest level of training,"[2]; TNFα amplification, re-stimulation with 1 μg/ml Pam3CSK4",24 h
